The record followed here is US20250163038A1, “CBL-B MODULATORS AND USES THEREOF” (Nimbus Clio, Inc., priority 2021, published 2025).

Test [1] concerns the target Recombinant human Cbl-b (aa 36-427) (Homo sapiens, UniProt Q13191). The test is described as follows: Cbl-b Biochemical Assay (TR-FRET). The note with it: read-out: TR-FRET hCbl-b IC50. A general note: In TR-FRET formats the signal depends on donor and acceptor labels being close together.
The subject of test [2] is Jurkat (clone E6-1) cells with NFAT luciferase reporter. As to the kind of experiment: Jurkat reporter assay (NFAT Luciferase). In kind it is cell-based. The note with it: Homo sapiens; Jurkat NFAT luciferase reporter cells, anti-CD3 stimulation, 6 hr; read-out: Jurkat NFAT EC50. (In a reporter assay the amount or activity of a reporter protein is the signal.)
The target in test [3] is T1, Recombinant human c-Cbl (aa 47-435) (Homo sapiens, UniProt P22681).
T1 sequence (P22681 47-435): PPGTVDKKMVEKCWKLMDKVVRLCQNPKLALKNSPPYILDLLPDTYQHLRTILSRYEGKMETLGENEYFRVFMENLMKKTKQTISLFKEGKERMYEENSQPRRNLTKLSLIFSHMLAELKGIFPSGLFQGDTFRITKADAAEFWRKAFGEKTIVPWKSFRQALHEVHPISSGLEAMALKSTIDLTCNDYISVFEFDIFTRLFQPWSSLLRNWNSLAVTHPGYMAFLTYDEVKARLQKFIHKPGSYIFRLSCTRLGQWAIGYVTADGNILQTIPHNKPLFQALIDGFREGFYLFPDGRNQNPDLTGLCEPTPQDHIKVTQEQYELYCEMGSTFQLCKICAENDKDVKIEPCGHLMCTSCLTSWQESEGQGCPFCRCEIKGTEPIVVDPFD
The test is described as follows: c-Cbl Biochemical Assay (TR-FRET). As to conditions: hc-Cbl Biochemical Assay (TR-FRET); read-out: TR-FRET hcCbl IC50.

Where only a bound is given, the exact number is not on record here.

Recombinant human Cbl-b (aa 36-427), sequence (Q13191 36-427): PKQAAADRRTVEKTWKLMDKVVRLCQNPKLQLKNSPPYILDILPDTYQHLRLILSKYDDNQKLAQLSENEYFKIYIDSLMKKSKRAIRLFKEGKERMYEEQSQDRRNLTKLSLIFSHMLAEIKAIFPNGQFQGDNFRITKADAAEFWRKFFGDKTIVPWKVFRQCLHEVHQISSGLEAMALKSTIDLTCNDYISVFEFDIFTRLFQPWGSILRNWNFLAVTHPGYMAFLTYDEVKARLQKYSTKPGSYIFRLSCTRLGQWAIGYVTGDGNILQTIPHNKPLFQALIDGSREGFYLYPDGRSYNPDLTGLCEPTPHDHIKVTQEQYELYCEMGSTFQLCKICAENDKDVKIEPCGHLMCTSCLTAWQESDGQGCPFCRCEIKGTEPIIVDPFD

With `Cc1cc(CN(C)[C@@H]2CCC[C@@H]2O)cc2nc(-c3cccc(-c4ccc(F)cc4-c4nncn4C)c3)oc12` [HY-3, (1S,2R)-2-(((2-(4′-Fluoro-2′-(4-methyl-4H-1,2,4-triazol-3-yl)-[1,1′-biphenyl]-3-yl)-7-methylbenzo[d]oxazol-5-yl)methyl)(methyl)amino)cyclopentan-1-ol], the IC50 in test [1] and in test [3] was < 200 nM each time. For the same compound, in test [2], the concentration giving a half-maximal response (EC50) (usually the concentration at which the effect is half-maximal) lay within 200 to 1000 nM.

In the case of `Cn1cnnc1-c1cc(F)ccc1-c1cccc(-c2nc3cc(NCCN4CCC4)cc(C(F)(F)F)c3o2)c1` [HZ-2, N-(2-(Azetidin-1-yl)ethyl)-2-(4′-fluoro-2′-(4-methyl-4H-1,2,4-triazol-3-yl)-[1,1′-biphenyl]-3-yl)-7-(trifluoromethyl)benzo[d]oxazol-5-amine], the IC50 (usually the concentration that gives 50% inhibition) in test [1] was < 200 nM; in test [3], 200 to 1000 nM. Also, the EC50 in test [2] was in the range of 1000 to 10000 nM.

With `CN(Cc1cc(C(F)(F)F)c2oc(-c3cccc(-c4ccc(F)cc4-c4nncn4C)c3)nc2c1)CC1(O)CCC1` [IA-1, 1-((((2-(4′-Fluoro-2′-(4-methyl-4H-1,2,4-triazol-3-yl)-[1,1′-biphenyl]-3-yl)-7-(trifluoromethyl)benzo[d]oxazol-5-yl)methyl)(methyl)amino)methyl)cyclobutan-1-ol], the IC50 in test [1] and in test [3] was < 200 nM in each case. In addition, the EC50 in test [2] is < 200 nM.

For `Cn1cnnc1-c1cc(F)ccc1-c1cccc(-c2nc3nc(CN[C@@H]4CCC[C@@H]4O)ccc3o2)c1` [IB-7, (1S,2R)-2-(((2-(4′-Fluoro-2′-(4-methyl-4H-1,2,4-triazol-3-yl)-[1,1′-biphenyl]-3-yl)oxazolo[4,5-b]pyridin-5-yl)methyl)amino)cyclopentan-1-ol], the results for the 50% inhibitory concentration (IC50) in test [1] and in test [3] were < 200 nM and 200 to 1000 nM, respectively. Further, in test [2], the half-maximal effective concentration (EC50) is 1000 to 10000 nM.

Regarding `Cc1cc(CNCC2(F)CCC2)cc2nc(-c3cccc(-c4ccc(F)cc4-c4nncn4C)c3)oc12` [IC-1, 1-(2-(4′-Fluoro-2′-(4-methyl-4H-1,2,4-triazol-3-yl)-[1,1′-biphenyl]-3-yl)-7-methylbenzo[d]oxazol-5-yl)-N-((1-fluorocyclobutyl)methyl)methanamine], the 50% inhibitory concentration (IC50) in test [1] and in test [3] was < 200 nM each time. In test [2], the EC50 lay within 200 to 1000 nM.

Turning to `CN(Cc1cc(C(F)(F)F)c2[nH]c(-c3cccc(-c4ccc(F)cc4-c4nncn4C)c3)nc2c1)[C@@H]1CCC[C@@H]1O` [ID-3, (1S,2R)-2-(((2-(4′-Fluoro-2′-(4-methyl-4H-1,2,4-triazol-3-yl)-[1,1′-biphenyl]-3-yl)-7-(trifluoromethyl)-1H-benzo[d]imidazol-5-yl)methyl)(methyl)amino)cyclopentan-1-ol], the IC50 in test [1] and in test [3] was < 200 nM throughout. In addition, in test [2], the EC50 is < 200 nM.

For the compound `CN(Cc1cc(C(F)(F)F)c2oc(-c3cccc(-c4ccc(F)cc4-c4nncn4C)c3)nc2c1)CC1CCC1` [IE-1, 1-Cyclobutyl-N-((2-(4′-fluoro-2′-(4-methyl-4H-1,2,4-triazol-3-yl)-[1,1′-biphenyl]-3-yl)-7-(trifluoromethyl)benzo[d]oxazol-5-yl)methyl)-N-methylmethanamine], the 50% inhibitory concentration (IC50) in test [1] was < 200 nM; in test [3], 200 to 1000 nM. Besides, the concentration for a half-maximal effect (EC50) in test [2] fell in the range of 200 to 1000 nM.

For the compound `Cn1cnnc1-c1cc(F)ccc1-c1cccc(-c2nc3cc(NCCN4CC(F)(F)C4)cc(C(F)(F)F)c3o2)c1` [IF-2, N-(2-(3,3-Difluoroazetidin-1-yl)ethyl)-2-(4′-fluoro-2′-(4-methyl-4H-1,2,4-triazol-3-yl)-[1,1′-biphenyl]-3-yl)-7-(trifluoromethyl)benzo[d]oxazol-5-amine], the 50% inhibitory concentration (IC50) is < 200 nM in test [1] and 200 to 1000 nM in test [3]. Further, the 50% effective concentration (EC50) in test [2] lay within 1000 to 10000 nM.

Take `O[C@H]1CCC[C@H]1NCc1cc(C(F)(F)F)c2oc(-c3cccc(-c4ccc(F)cc4-c4nnco4)c3)nc2c1` [IG-6, (1S,2R)-2-(((2-(4′-Fluoro-2′-(1,3,4-oxadiazol-2-yl)-[1,1′-biphenyl]-3-yl)-7-(trifluoromethyl)benzo[d]oxazol-5-yl)methyl)amino)cyclopentan-1-ol]: the IC50 in test [1] and in test [3] was < 200 nM in each case. The concentration for a half-maximal effect (EC50) in test [2] lay within 200 to 1000 nM.

In the case of `COc1cc(CN[C@@H]2CCC[C@@H]2O)cn2nc(-c3cccc(-c4ccc(F)cc4-c4nncn4C)c3)nc12` [IH-9, (1S,2R)-2-(((2-(4′-Fluoro-2′-(4-methyl-4H-1,2,4-triazol-3-yl)-[1,1′-biphenyl]-3-yl)-8-methoxy-[1,2,4]triazolo[1,5-a]pyridin-6-yl)methyl)amino)cyclopentan-1-ol], the half-inhibitory concentration (IC50) in test [1] and in test [3] was < 200 nM each time. Moreover, in test [2], the EC50 was 200 to 1000 nM.

For the compound `CC(=O)NCc1cc(C(F)(F)F)c2oc(-c3cccc(-c4ccc(F)cc4-c4nncn4C)c3)nc2c1` [II-1, N-((2-(4′-Fluoro-2′-(4-methyl-4H-1,2,4-triazol-3-yl)-[1,1′-biphenyl]-3-yl)-7-(trifluoromethyl)benzo[d]oxazol-5-yl)methyl)acetamide], the 50% inhibitory concentration (IC50) was 1000 to 10000 nM in test [1] and 200 to 1000 nM in test [3]. For the same compound, the EC50 in test [2] was in the range of 1000 to 10000 nM.

Consider `Cc1cc(CNCC2(O)CCC2)cc2nc(-c3cccc(-c4ccc(F)cc4-c4nncn4C)c3)oc12` [IJ-1, 1-((((2-(4′-Fluoro-2′-(4-methyl-4H-1,2,4-triazol-3-yl)-[1,1′-biphenyl]-3-yl)-7-methylbenzo[d]oxazol-5-yl)methyl)amino)methyl)cyclobutan-1-ol], for which the IC50 in test [1] and in test [3] was < 200 nM throughout. For the same compound, the 50% effective concentration (EC50) in test [2] is < 200 nM.

As to `Cc1cc(CNCC(C)(C)O)cc2nc(-c3cccc(-c4ccc(F)cc4-c4nncn4C)c3)oc12` [IK-1, 1-(((2-(4′-Fluoro-2′-(4-methyl-4H-1,2,4-triazol-3-yl)-[1,1′-biphenyl]-3-yl)-7-methylbenzo[d]oxazol-5-yl)methyl)amino)-2-methylpropan-2-ol], the IC50 in test [1] and in test [3] was < 200 nM throughout. The EC50 in test [2] is < 200 nM.

For the compound `Cn1cnnc1-c1cc(F)ccc1-c1cccc(-c2nc3cc(CN4C[C@@H]5C[C@H]4CO5)cc(C(F)(F)F)c3o2)c1` [IN-2, 5-(((1S,4S)-2-Oxa-5-azabicyclo[2.2.1]heptan-5-yl)methyl)-2-(4′-fluoro-2′-(4-methyl-4H-1,2,4-triazol-3-yl)-[1,1′-biphenyl]-3-yl)-7-(trifluoromethyl)benzo[d]oxazole], the IC50 in test [1] and in test [3] was 1000 to 10000 nM throughout. In addition, the EC50 in test [2] is 1000 to 10000 nM.

Take `Cn1cnnc1-c1cc(F)ccc1-c1cccc(-c2nc3cc(CN[C@@H]4CCC[C@@H]4O)c(F)cc3o2)c1` [IP-7, (1S,2R)-2-(((6-Fluoro-2-(4′-fluoro-2′-(4-methyl-4H-1,2,4-triazol-3-yl)-[1,1′-biphenyl]-3-yl)benzo[d]oxazol-5-yl)methyl)amino)cyclopentan-1-ol]: the IC50 in test [1] and in test [3] was < 200 nM in each case. In addition, in test [2], the EC50 was < 200 nM.

As to `Cc1cc(CN[C@@H]2CCC[C@@H]2O)c(F)c2nc(-c3cccc(-c4ccc(F)cc4-c4nncn4C)c3)oc12` [IQ-8, (1S,2R)-2-(((4-Fluoro-2-(4′-fluoro-2′-(4-methyl-4H-1,2,4-triazol-3-yl)-[1,1′-biphenyl]-3-yl)-7-methylbenzo[d]oxazol-5-yl)methyl)amino)cyclopentan-1-ol], the IC50 in test [1] and in test [3] was < 200 nM each time. Moreover, the EC50 in test [2] is < 200 nM.

In the case of `COCCNCc1cc2nc(-c3cccc(-c4ccc(F)cc4-c4nncn4C)c3)oc2cc1F` [IR-1, N-((6-Fluoro-2-(4′-fluoro-2′-(4-methyl-4H-1,2,4-triazol-3-yl)-[1,1′-biphenyl]-3-yl)benzo[d]oxazol-5-yl)methyl)-2-methoxyethan-1-amine], the concentration for half-maximal inhibition (IC50) was < 200 nM in test [1] and 200 to 1000 nM in test [3]. In addition, the EC50 in test [2] lay in the range of 200 to 1000 nM.

`COCCNCc1cc(F)c2oc(-c3cccc(-c4ccc(F)cc4-c4nncn4C)c3)nc2c1` [IS-1, N-((7-Fluoro-2-(4′-fluoro-2′-(4-methyl-4H-1,2,4-triazol-3-yl)-[1,1′-biphenyl]-3-yl)benzo[d]oxazol-5-yl)methyl)-2-methoxyethan-1-amine]: the 50% inhibitory concentration (IC50) in test [1] and in test [3] was < 200 nM in each case. Further, in test [2], the EC50 was < 200 nM.

For the compound `[2H]C([2H])([2H])N(Cc1cc(C(F)(F)F)c2oc(-c3cccc(-c4ccc(F)cc4-c4nncn4C)c3)nc2c1)[C@@H]1CCC[C@@H]1O` [IT-1, (1S,2R)-2-(((2-(4′-Fluoro-2′-(4-methyl-4H-1,2,4-triazol-3-yl)-[1,1′-biphenyl]-3-yl)-7-(trifluoromethyl)benzo[d]oxazol-5-yl)methyl)(methyl-d3)amino)cyclopentan-1-ol], the IC50 in test [1] and in test [3] was < 200 nM each time. In test [2], the EC50 is < 200 nM.

Turning to `CO[C@H]1CCCN(Cc2cc(C(F)(F)F)c3oc(-c4cccc(-c5ccc(F)cc5-c5nncn5C)c4)nc3c2)C1` [IU-2, (S)-2-(4′-Fluoro-2′-(4-methyl-4H-1,2,4-triazol-3-yl)-[1,1′-biphenyl]-3-yl)-5-((3-methoxypiperidin-1-yl)methyl)-7-(trifluoromethyl)benzo[d]oxazole], the half-inhibitory concentration (IC50) in test [1] and in test [3] was < 200 nM each time. Further, in test [2], the EC50 is 200 to 1000 nM.
